As a reminder, the MIC is the lowest concentration that inhibits growth of the organism.

In ChEMBL document CHEMBL4842333, “Catechol-Bearing Polyketide Derivatives from Sparticola junci” (2021) one finds MIC and Activity data, which are given here for five compounds.

The subject of assay [1] is Mycolicibacterium smegmatis. Put plainly: Antimycobacterial activity against Mycobacterium smegmatis ATCC700084 assessed as inhibition of mycobacterial growth by broth microdilution method. It is filed as functional. For orientation: In broth dilution the organism is exposed to a series of concentrations in liquid medium.
Another assay relates to Kocuria rhizophila. Put plainly: Antibacterial activity against Kocuria rhizophila DSM1790 assessed as inhibition of bacterial growth by broth microdilution method. In kind it is functional.
Another assay concerns Bacillus subtilis. Put plainly: Antibacterial activity against Bacillus subtilis DSM10 assessed as inhibition of bacterial growth by broth microdilution method. In kind it is functional.
The test system of a further assay is Escherichia coli. The assay can be described thus: Antibacterial activity against Escherichia coli DSM1116 assessed as inhibition of bacterial growth by broth microdilution method. It is filed as functional.
In assay [2] the test system is Chromobacterium violaceum. Put plainly: Antibacterial activity against Chromobacterium violaceum DSM30191 assessed as inhibition of bacterial growth by broth microdilution method. It is filed as functional.
Another assay has as its system Staphylococcus aureus. The assay can be described thus: Antibacterial activity against Staphylococcus aureus DSM346 assessed as inhibition of bacterial growth by broth microdilution method. It is filed as functional.
The subject of the next assay is Wickerhamomyces anomalus. The assay can be described thus: Antifungal activity against Pichia anomala DSM6766 assessed as inhibition of fungal growth by broth microdilution method. In kind it is functional, organism-based.
Assay [3] has as its system Schizosaccharomyces pombe. The assay can be described thus: Antifungal activity against Schizosaccharomyces pombe DSM70572 assessed as inhibition of fungal growth by broth microdilution method. In kind it is functional, organism-based.
Another assay relates to Candida albicans. The assay can be described thus: Antifungal activity against Candida albicans DSM1665 assessed as inhibition of fungal growth by broth microdilution method. In kind it is functional, organism-based.
A further assay concerns Rhodotorula glutinis. Put plainly: Antifungal activity against Rhodotorula glutinis DSM1034 assessed as inhibition of fungal growth by broth microdilution method. It is filed as functional, organism-based.
The subject of a further assay is Mucor hiemalis. Put plainly: Antifungal activity against Mucor hiemalis DSM2656 assessed as inhibition of fungal growth by broth microdilution method. In kind it is functional, organism-based.
Another assay has as its system A549. Put plainly: Cytotoxicity against human A549 cells assessed as cell growth inhibition incubated for 5 days by MTT assay. It is filed as functional, cell-based. To be noted: time 5.0 day. For orientation: Formazan colour is commonly taken as a measure of viable cells.
The test system of another assay is MCF7. Put plainly: Cytotoxicity against human MCF7 cells assessed as cell growth inhibition incubated for 5 days by MTT assay. As to conditions: time 5.0 day. In kind it is functional, cell-based.
Another assay deals with PC-3. Put plainly: Cytotoxicity against human PC-3 cells assessed as cell growth inhibition incubated for 5 days by MTT assay. It is filed as functional, cell-based. To be noted: time 5.0 day.
Another assay has as its system L929. Put plainly: Cytotoxicity against mouse L929 cells assessed as cell growth inhibition incubated for 5 days by MTT assay. It is filed as functional, cell-based. As to conditions: time 5.0 day.
The next assay deals with KB 3-1. The assay can be described thus: Cytotoxicity against human KB 3-1 cells assessed as cell growth inhibition incubated for 5 days by MTT assay. It is filed as functional, cell-based. As to conditions: time 5.0 day.
The test system of the next assay is SK-OV-3. Put plainly: Cytotoxicity against human SK-OV-3 cells assessed as cell growth inhibition incubated for 5 days by MTT assay. In kind it is functional, cell-based. To be noted: time 5.0 day.
The next assay has as its system A-431. The assay can be described thus: Cytotoxicity against human A-431 cells assessed as cell growth inhibition incubated for 5 days by MTT assay. It is filed as functional, cell-based. To be noted: time 5.0 day.

Values after ≈ are worked out from the molar mass of the structure shown. Active and inactive are the calls of the source. The calls are words filed in the database; no cut-off is given here.

On to `NC[C@H]1O[C@H](O[C@H]2[C@H](O)[C@@H](O[C@H]3O[C@H](CO)[C@@H](O)[C@H](N)[C@H]3O)[C@H](N)C[C@@H]2N)[C@H](N)[C@@H](O)[C@@H]1O` [BEKANAMYCIN], for which the MIC in assay [1] is 2.1 µg/mL (≈ 4.34 µM).
With `CN(C)[C@@H]1C(O)=C(C(N)=O)C(=O)[C@@]2(O)C(O)=C3C(=O)c4c(O)cccc4[C@@](C)(O)[C@H]3[C@H](O)[C@@H]12.Cl` [OXYTETRACYCLINE HYDROCHLORIDE], the minimal inhibitory concentration (MIC) in the assay on Kocuria rhizophila amounted to 0.4 µg/mL; in the assay on Bacillus subtilis, 4.2 µg/mL; with Escherichia coli, 1.7 µg/mL; in [2], 0.4 µg/mL; with Staphylococcus aureus, 0.1 µg/mL.
NYSTATIN: the MIC was 2.1 µg/mL in the assay with Wickerhamomyces anomalus; 16.7 µg/mL in assay [3]; 2.1 µg/mL in the assay with Candida albicans; 1 µg/mL with Rhodotorula glutinis; 8.3 µg/mL with Mucor hiemalis.
Regarding `O=C(O)C[C@H](O)C1(c2cccc(O)c2O)Oc2cccc3cccc(c23)O1`, the result with A549, in the assay on MCF7, in the assay on PC-3, in the assay on L929, with KB 3-1 and with SK-OV-3 was inactive. In the assay on A-431, the result was inactive. The MIC with Staphylococcus aureus came to 66.6 µg/mL (≈ 181 µM).
As to `COC(=O)C[C@H](O)C1(c2cccc(O)c2O)Oc2cccc3cccc(c23)O1`, the outcome in the assay on A549, in the assay with MCF7, with PC-3, with L929, in the assay on KB 3-1 and in the assay on SK-OV-3 was inactive. Moreover, the outcome in the assay with A-431 was inactive. Moreover, the MIC in the assay with Staphylococcus aureus amounted to 66.6 µg/mL (≈ 174 µM).
